According to US20240157017A1, “A MEDICAL DRESSING COMPRISING A BACTERIOSTATIC COMPOSITION” (Mölnlycke Health Care AB, priority 2021, published 2024):

How the values were obtained:
[1] = test system: Pseudomonas aeruginosa (ATCC #15692, PaO1); experiment: Bacteriostatic effect on planktonic cultures with different bacterial inoculum sizes in SWF; format: cell-based; details: 3 mM deferiprone in SWF
Procedure: An evaluation of possible bacteriostatic effect of deferiprone (3 mM) on the gram-negative bacterium Pseudomonas aeruginosa (ATCC #15692, PaO1) and effect of bacterial start concentrations was performed. Deferiprone (3 mM) was dissolved into Simulated Wound Fluid (SWF) (fetal bovine serum (FBS) and Peptone Water (PW) mixed in equal proportions, which correspond to the protein and electrolyte concentration of wound exudates (Emiko Aiba-Kojima, MD et.al Wound Rep Reg (2007) 15 511-520; Trengove, N et al Wound Rep Reg (1996) 4 1067-1927)). Bacterial concentrations ranging from 10−1×10^8 CFU/ml were inoculated into different test tubes +/− Deferiprone (3 mM) in SWF and incubated at 35° C. for 24 hrs before bacterial numbers were determined using petrifilm.

[2] = test system: Pseudomonas aeruginosa (ATCC #15692, PaO1); experiment: Bacterial growth in wells of Calgary biofilm device (petrifilm); format: cell-based; details: inoculum 1×10^6 CFU/ml, 24, 48, 72 hrs
Procedure: (§1) An evaluation of possible bacteriostatic effect of deferiprone (3-6 mM) on the gram-negative bacterium Pseudomonas aeruginosa (ATCC #15692, PaO1) and connection to ability to form biofilm on a plastic surface, using the Calgary biofilm device (CBD) (Journal of Clinical Microbiology, June 1999, p. 1771-1776) was performed. This method utilizes 96-well microplates with lids containing 96 plastic cone shaped protrusions that extend into the wells of the plate. By submerging the plastic cones into bacterial solution, biofilm attachment to the pegs can be studied. Different concentrations of Deferiprone (0, 0.37, 0.75, 1.5, 3, 6 mM) were dissolved in Simulated Wound Fluid (SWF) and added to wells in the CBD plate. PaO1 was then inoculated at a total bacterial concentration of 1×10^6 CFU/ml and the lid was placed on the plate. Following incubation at 35° C. for 24, 48, 72 hrs, bacterial concentration from the wells were calculated using petrifilm and the plastic protrusions were analyzed for biofilm attachment using a luminescence kit that quantifies bacterial viability (Promega BacTiter-GLO).

[3] = test system: Pseudomonas aeruginosa (ATCC #15692, PaO1); experiment: Biofilm attachment to pegs of Calgary biofilm device (Promega BacTiter-GLO luminescence); format: cell-based
Procedure: as §1

[4] = test system: PaO1 in a biofilm phenotype; experiment: Bacteriostatic effect in collagen (wound-like matrix) gels, bacteria in biofilm phenotype; format: cell-based, Pseudomonas aeruginosa; details: 3 mM deferiprone, different start concentrations, 24 hrs at 35° C.
Procedure: Collagen gels were created and inoculated with 1×10^6 CFU/ml PaO1. Gels were incubated for 24 hrs at 35° C. in order to obtain bacteria in biofilm phenotype. New collagen gels +/−3 mM deferiprone were created and different bacterial start concentrations were inoculated into the gels. Following 24 hrs incubation at 35° C., the gels were solubilized and bacterial counts were measured using petrifilm.

[5] = test system: clinical wound isolates of Pseudomonas aeruginosa; experiment: Effect on clinical wound isolates in SWF; format: cell-based; details: 3 mM deferiprone in SWF, 24 hrs at 35° C., all isolates tested
Procedure: Bacteriostatic effect of deferiprone was tested on different clinical wound isolates of Pseudomonas aeruginosa. Isolates were typed according to known virulence factors (FIG. 9a) and subjected for treatment +/−3 mM deferiprone in SWF for 24 hrs at 35° C. Bacterial start concentrations and concentrations after treatment were measured using petrifilm.

Actinobacter baumannii = experiment: Bacteriostatic effect on other gram-negative species in SWF; format: cell-based; details: 3 mM deferiprone in SWF, 24 hrs at 35° C.
Procedure: (§2) The bacteriostatic effect of deferiprone was tested on other gram negative species than Pseudomonas aeruginosa in order to see if the bacteriostatic effect of deferiprone extends to other gram negative species. The following bacteria were tested: Actinobacter baumannii, Echerschia coli, Klebsiella pneumoniae +/−3 mM deferiprone in SWF for 24 hrs at 35° C. Bacterial start concentrations and concentrations after treatment were measured using petrifilm.

Echerschia coli = experiment: as above; format: cell-based; details: 3 mM deferiprone in SWF, 24 hrs at 35° C.
Procedure: as §2

Klebsiella pneumoniae = experiment: as above; format: cell-based; details: 3 mM deferiprone in SWF, 24 hrs at 35° C.
Procedure: as §2

PaO1 = experiment: Growth of planktonic PaO1 at sub-bacteriostatic concentrations in SWF; format: cell-based, Pseudomonas aeruginosa; details: 1×10^6 CFU/ml, 72 hrs at 35° C.
[6] = test system: virulence factor pyoverdine; experiment: Pyoverdine levels in supernatants by LC-MS; format: cell-based, Pseudomonas aeruginosa; details: 0.03 and 0.3 mM deferiprone in SWF, 72 hrs at 35° C.
Procedure: In order to evaluate if sub-bacteriostatic concentrations (<3 mM) of deferiprone have an effect on the virulence factor pyoverdine, supernatants of planktonically grown PaO1 (1×10^6 CFU/ml) +/− deferiprone at 0.3 and 0.03 mM in SWF were analyzed by LC-MS for pyoverdine after 72 hrs at 35° C.

`Cc1c(O)c(=O)ccn1C` [deferiprone] was tested, and the “bacterial concentration after 24 hrs” value ([1]; 35° C., 24 hrs) was “equals the bacterial start concentration”, the “effect on growth of PaO1 in planktonic cultures” value ([1]; 35° C., 24 hrs, different start inoculums) was “true bacteriostatic effect” and the “toxicity to PaO1” value ([1]; different start inoculums) was “non-toxic”. For the same molecule, the “effect on growth of PaO1 in CBD wells” value ([2]; 3 mM deferiprone in SWF) was “bacteriostatic”, the “effect on growth of PaO1 in CBD wells” value ([2]; 6 mM deferiprone in SWF) was “bacteriostatic” and the “biofilm formation on pegs of CBD plate” value ([3]; 3 mM deferiprone in SWF, 24, 48, 72 hrs) was “No biofilm was formed”. For the same molecule, the “biofilm formation on pegs of CBD plate” value ([3]; 6 mM deferiprone in SWF, 24, 48, 72 hrs) was “No biofilm was formed”, the “biofilm formation on pegs of CBD plate (read-out signal)” value ([3]; all other concentrations (0.37, 0.75, 1.5 mM) of deferiprone in SWF) was “full growth” and the “effect on growth of PaO1 in collagen gel” value [4] was “a bacteriostatic effect is observed”. The “effect on growth of clinical wound isolates” value [5] was “bacteriostatic effects”, the “effect on growth of Actinobacter baumannii” value (Actinobacter baumannii) was “sensitive” and the “effect on growth of Echerschia coli” value (Echerschia coli) was “same bacteriostatic effects”. For the same molecule, the “effect on growth of Klebsiella pneumoniae” value (Klebsiella pneumoniae) was “sensitive”, the “effect on growth characteristics of PaO1” value (PaO1; 0.03 mM deferiprone in SWF) was “does not affect growth characteristics” and the “effect on growth characteristics of PaO1” value (PaO1; 0.3 mM deferiprone in SWF) was “does not affect growth characteristics”. The “pyoverdine levels in supernatants” value [6] was “dose-dependent decrease”.
